Mass density data for eight compounds are collected here from the NIST ThermoML archive (doi:10.1016/j.jct.2018.10.030).

± gives the expanded uncertainty stated by the source.

The conditions of this series: 298.15 K; 101.33 kPa; Liquid; Vibrating tube method.
As usually defined, the mass density is mass per unit of volume. As to `CCCCCCCC(=O)O` [octanoic acid], the mass density came out at 906 ± 0.32 kg/m3.

For `CC(C)O` [propan-2-ol], the mass density is 780.69 ± 0.23 kg/m3.

Consider `CCCCCCC=O` [heptanal], for which the mass density came to 816.83 ± 3.2 kg/m3.

Consider `CCCCCC=O` [hexanal], for which the mass density was determined as 830.01 ± 1 kg/m3.

As for `C[S+](C)[O-]` [dimethyl sulfoxide], the mass density was 1095.34 ± 0.21 kg/m3.

With `CCCC(=O)O` [butanoic acid], the mass density stood at 953.05 ± 0.21 kg/m3.

Consider `CCCCCC(=O)O` [hexanoic acid], for which the mass density is recorded as 923.07 ± 0.21 kg/m3.

As for `CCCCC(=O)O` [pentanoic acid], the mass density stood at 934.75 ± 0.21 kg/m3.
